Test results published in publication PMC4460250, “Systems Pharmacology Dissecting Holistic Medicine for Treatment of Complex Diseases: An Example Using Cardiocerebrovascular Diseases Treated by TCM” (Evidence-based Complementary and Alternative Medicine : eCAM, 2015).

Key:
[1] = in vivo
[2] = in vivo; cited from earlier work

| SMILES | Class(High: HIA value ≥0.7; Low: HIA value < 0.7) [1] | HIA(Human Intestinal Absorption) [2] |
| --- | --- | --- |
| CN(C)C(=O)O[C@H]1N=C(c2ccccc2)c2cc(Cl)ccc2N(C)C1=O [Camazepam(R)] | High (key: High: HIA value ≥0.7; Low: HIA value < 0.7) | 1 |
| CN(C)C(=O)O[C@@H]1N=C(c2ccccc2)c2cc(Cl)ccc2N(C)C1=O [Camazepam(S)] | High (key: High: HIA value ≥0.7; Low: HIA value < 0.7) | 1 |
| CC1(C)S[C@@H]2[C@H](NC(=O)C(C(=O)Oc3ccccc3)c3ccccc3)C(=O)N2[C@H]1C(=O)O (stereo partly drawn) [Carfecillin(R)] | High (key: High: HIA value ≥0.7; Low: HIA value < 0.7) | 0.99 |
| CC(C)(C)NC[C@@H](O)COc1cccc2c1CCC(=O)N2 [Carteolol(R)] | High (key: High: HIA value ≥0.7; Low: HIA value < 0.7) | 0.95 |
| CC(C)(C)NC[C@H](O)COc1cccc2c1CCC(=O)N2 [Carteolol(S)] | High (key: High: HIA value ≥0.7; Low: HIA value < 0.7) | 0.95 |
| COc1ccccc1OCCNC[C@@H](O)COc1cccc2[nH]c3ccccc3c12 [Carvedilol(R)] | High (key: High: HIA value ≥0.7; Low: HIA value < 0.7) | 0.8 |
| COc1ccccc1OCCNC[C@H](O)COc1cccc2[nH]c3ccccc3c12 [Carvedilol(S)] | High (key: High: HIA value ≥0.7; Low: HIA value < 0.7) | 0.8 |
| CO/N=C(\C(=O)N[C@@H]1C(=O)N2C(C(=O)OC(C)OC(C)=O)=C(COC(N)=O)CS[C@H]12)c1ccco1 (stereo partly drawn) [Cefuroximeaxetil(R)] | Low (key: High: HIA value ≥0.7; Low: HIA value < 0.7) | 0.36 |
| OC(O)C(Cl)(Cl)Cl [Chloral_hydrate] | High (key: High: HIA value ≥0.7; Low: HIA value < 0.7) | 1 |
| O=C(O)CCCc1ccc(N(CCCl)CCCl)cc1 [Chlorambucil] | High (key: High: HIA value ≥0.7; Low: HIA value < 0.7) | 1 |
| OC[C@@H](O)COc1ccc(Cl)cc1 [Chlorphenesin(R)] | High (key: High: HIA value ≥0.7; Low: HIA value < 0.7) | 1 |
| OC[C@H](O)COc1ccc(Cl)cc1 [Chlorphenesin(S)] | High (key: High: HIA value ≥0.7; Low: HIA value < 0.7) | 1 |
| NS(=O)(=O)c1cc([C@]2(O)NC(=O)c3ccccc32)ccc1Cl [Chlorthalidone(R)] | Low (key: High: HIA value ≥0.7; Low: HIA value < 0.7) | 0.65 |
| NS(=O)(=O)c1cc([C@@]2(O)NC(=O)c3ccccc32)ccc1Cl [Chlorthalidone(S)] | Low (key: High: HIA value ≥0.7; Low: HIA value < 0.7) | 0.65 |
| CCCNC(=O)NS(=O)(=O)c1ccc(Cl)cc1 [Chorpropamide] | High (key: High: HIA value ≥0.7; Low: HIA value < 0.7) | 0.95 |
| CC(C)(Oc1ccc([C@H]2CC2(Cl)Cl)cc1)C(=O)O [Ciprofibrate(R)] | High (key: High: HIA value ≥0.7; Low: HIA value < 0.7) | 0.99 |
| CC(C)(Oc1ccc([C@@H]2CC2(Cl)Cl)cc1)C(=O)O [Ciprofibrate(S)] | High (key: High: HIA value ≥0.7; Low: HIA value < 0.7) | 0.99 |
| CN(C)CCC[C@]1(c2ccc(F)cc2)OCc2cc(C#N)ccc21 [Citalopram(R)] | High (key: High: HIA value ≥0.7; Low: HIA value < 0.7) | 1 |
| CN1C(=O)CC(=O)N(c2ccccc2)c2cc(Cl)ccc21 [Clobazam] | High (key: High: HIA value ≥0.7; Low: HIA value < 0.7) | 0.87 |
